Measurements taken from patent US5990277A, “Semipeptoid farnesyl protein transferase inhibitors and analogs thereof” (Yissum Research Development Company of the Herbrew …, priority 1996, dated 1999).

Tests used:
[1] = test system: Ras processing in v-Ha-ras transformed NIH3T3 cells; assay: Protein processing assay in intact cells: Ras; type: cell-based; settings: 48 hr incubation, western blot
Method: Its selectivity towards FT as compared to GGT in whole cells, was determined by its relative inhibitory effects on Ras farnesylation and on Rap1A/Krev geranylgeranylation (Casey, J. Lipid Res. 1992, 33, 1731-1740; Cox et al., Curr. Opin. Cell Biol. 1992, 4, 1008-1016; Garcia et al., J. Biol. Chem. 1993, 268, 18415-18418; and Vogt et al., J. Biol. Chem. 1995, 270, 660-664), respectively. v-Ha-ras transformed NIH3T3 cells were incubated with lovastatin or increasing concentrations of the inhibitor. Cells were lysed and the processed and unprocessed forms of Ras or Rap1A were separated by SDS-PAGE and immunoblotted with anti-Ras or anti-Rap1A antibodies, respectively. Lovastatin is a compound which blocks the processing of isoprenylated proteins in cells by inhibiting an early step of the isoprenoid biosynthetic pathway, and therefore serves as a positive control for the inhibition of both geraylgeranylation and farnesylation (Kohl et al., Science 1993, 260, 1934-1937; Garcia et al., J. Biol. Chem. 1993, 268, 18415-18418; Vogt et al., J. Biol. Chem. 1995, 270, 660-664).
After 48 hr of incubation, cell extracts were separated on SDS-PAGE and immunoblotted with anti-Ras antibody.
Cells were lysed (Garcia et al., J. Biol. Chem. 1993, 268, 18415-18418) in 1% Nonidet P-40, 5 mM TRIS.HCl pH 8.0, 5 mM EDTA, 1 mM phenylmethylsulfonyl fluoride, 10 mg/ml aprotonin, 10 mg/ml soybean trypsin inhibitor and 313 mg/ml benzamidine. The lysate was separated by centriflgation and the supernatant used as cell extract. Total protein was separated by SDS-PAGE (40 mg/lane) in 15% acrylamide (0.4% bis-acrylamide) gels, transferred onto nitrocellulose (Schleicher & Schuell, optitran BA-S 85) and probed with anti-Ras antibody Y13-259, or monoclonal anti-Rap1A/K-rev antibody (transduction laboratories). The western blots were visualized using an enhanced chemiluminescence (ECL) detection system.

[2] = test system: Rap1A/K-rev processing in v-Ha-ras transformed NIH3T3 cells; assay: Protein processing assay in intact cells: Rap1A/K-rev; type: cell-based
Method: Its selectivity towards FT as compared to GGT in whole cells, was determined by its relative inhibitory effects on Ras farnesylation and on Rap1A/Krev geranylgeranylation (Casey, J. Lipid Res. 1992, 33, 1731-1740; Cox et al., Curr. Opin. Cell Biol. 1992, 4, 1008-1016; Garcia et al., J. Biol. Chem. 1993, 268, 18415-18418; and Vogt et al., J. Biol. Chem. 1995, 270, 660-664), respectively. v-Ha-ras transformed NIH3T3 cells were incubated with lovastatin or increasing concentrations of the inhibitor. Cells were lysed and the processed and unprocessed forms of Ras or Rap1A were separated by SDS-PAGE and immunoblotted with anti-Ras or anti-Rap1A antibodies, respectively.
To test the selectivity of compound 12 towards FT in whole cells, the post-translational processing of an endogenous geranylgeranylated protein, Rap1A/K-rev, was analyzed.
v-Ha-ras transformed NIH3T3 fibroblasts were treated with 15 mM lovastatin or the indicated concentrations of compound 12 or vehicle (0.25 mM DTT, 0.25% DMSO), for 48 hr. Cells were lysed (Garcia et al., J. Biol. Chem. 1993, 268, 18415-18418) in 1% Nonidet P-40, 5 mM TRIS.HCl pH 8.0, 5 mM EDTA, 1 mM phenylmethylsulfonyl fluoride, 10 mg/ml aprotonin, 10 mg/ml soybean trypsin inhibitor and 313 mg/ml benzamidine. The lysate was separated by centriflgation and the supernatant used as cell extract. […]

[3] = test system: met18b-2 cells; settings: cited from earlier work
[4] = test system: cells transformed by either v-raf or v-mos oncogenes; settings: cited from earlier work
[5] = test system: Ras processing in cells transformed with v-ras; settings: cited from earlier work
[6] = test system: v-ras-transformed cells; settings: cited from earlier work
[7] = target: farnesyl protein transferase (Homo sapiens, UniProt P49354+P49356); settings: literature; cited from earlier work
[8] = test system: MMTV-v-Ha-ras transgenic mice bearing palpable tumors; settings: daily administration; cited from earlier work
[9] = test system: human adenocarcinoma cell line PSN-1; settings: PSN-1 cells, altered K-ras and p53 genes; cited from earlier work
[10] = test system: protein farnesyl transferase in cells; settings: cited from earlier work
[11] = test system: RatI cells transformed with viral H-ras; settings: cited from earlier work
[12] = test system: tumors in nude mice; settings: cited from earlier work

methyl ester Derivative of cysteinyl-(Nα-methyl)valyl-(Nα-cyclohexyl)glycyl-methionine [Semipeptoid 12]
concentration range of dose dependent shift of Ras towards its unprocessed form [1]: 1 to 160 mM
IC50 ([1]; read-out: in situ IC50 (shift of Ras towards its unprocessed form)): 10 µM
effect on Rap1A/K-rev processing [2]: not affected

COC(=O)[C@H](CCSC)NC(=O)CN1C(=O)C(N(C)C(=O)[C@@H](N)CS)N=C(c2ccccc2)c2ccccc21 (stereo partly drawn) [BZA-5B]
inhibitory potency in cells versus parent compound BZA-2B [3]: much more potent inhibitor

CC[C@H](C)[C@H](NC[C@@H](NC[C@@H](N)CS)[C@@H](C)CC)C(=O)NC1CCOC1=O (stereo partly drawn) [L-731,734, N-{2(S)-[2(R)-amino-3-mercaptopropylamino]-3(S)-methylpentyl}isoleucyl-homoserine lactone]
efficiency of colony transformation [4]: no effect on the efficiency of colony transformation
effect on Ras processing in cells [5]: efficiently inhibit Ras processing
colony formation in soft agar [6]: decreasing the ability of v-ras-transformed cells to form colonies
farnesyl protein transferase inhibitory potency in vitro [7]: less potent

CC[C@H](C)[C@@H](CO[C@@H](Cc1ccccc1)C(=O)N[C@@H](CCS(C)(=O)=O)C(=O)OC(C)C)NC[C@@H](N)CS [L-744,832]
tumor response [8]: caused tumor regression
farnesyl protein transferase inhibitory potency in vitro [7]: potent and selective inhibitor

CC[C@H](C)[C@@H](CO[C@@H](Cc1ccccc1)C(=O)N[C@@H](CCS(C)(=O)=O)C(=O)OC)NC[C@@H](N)CS [L-739,749]
anchorage-independent growth [9]: inhibit the anchorage-independent growth
inhibitory activity in cells compared to compound L-739,750 [10]: superior inhibitory activity
farnesyl protein transferase inhibitory potency in vitro [7]: moderate inhibitor
anchorage-independent growth [11]: suppressing the anchorage-independent growth
growth of tumors [12]: suppress the growth of tumors
